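Five concentrations, 48 hours, 96-well plates. At the TGI there is no net growth.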
Key:
Assay in all cases: DTP human tumour cell line panel, 48 h
EKVX NSCLC = system: EKVX NSCLC
NCI-H460 lung = system: NCI-H460 lung
U251 CNS = system: U251 CNS
MDA-N = system: MDA-N
PC-3 prostate = system: PC-3 prostate
HOP-62 NSCLC = system: HOP-62 NSCLC
UACC-62 melanoma = system: UACC-62 melanoma
SNB-75 CNS = system: SNB-75 CNS
LOX IMVI melanoma = system: LOX IMVI melanoma
SK-MEL-28 melanoma = system: SK-MEL-28 melanoma
SNB-19 CNS = system: SNB-19 CNS
OVCAR-4 ovarian = system: OVCAR-4 ovarian
DU-145 prostate = system: DU-145 prostate
SR leukemia = system: SR leukemia
M14 melanoma = system: M14 melanoma
SF-295 CNS = system: SF-295 CNS
RPMI-8226 leukemia = system: RPMI-8226 leukemia
A549 NSCLC = system: A549 NSCLC
A498 renal = system: A498 renal
MALME-3M melanoma = system: MALME-3M melanoma
K-562 leukemia = system: K-562 leukemia
SK-MEL-5 melanoma = system: SK-MEL-5 melanoma
UO-31 renal = system: UO-31 renal
NCI-H23 lung = system: NCI-H23 lung
SK-OV-3 ovarian = system: SK-OV-3 ovarian
NCI-H522 lung = system: NCI-H522 lung
CAKI-1 renal = system: CAKI-1 renal
HT29 colon = system: HT29 colon
UACC-257 melanoma = system: UACC-257 melanoma
HCT-15 colon = system: HCT-15 colon
BT-549 breast = system: BT-549 breast
ACHN renal = system: ACHN renal
KM12 colon = system: KM12 colon
MDA-MB-435 = system: MDA-MB-435
HS 578T breast = system: HS 578T breast
MOLT-4 leukemia = system: MOLT-4 leukemia
MDA-MB-231 breast = system: MDA-MB-231 breast
HOP-92 NSCLC = system: HOP-92 NSCLC
IGROV1 ovarian = system: IGROV1 ovarian
OVCAR-5 ovarian = system: OVCAR-5 ovarian
HCT-116 colon = system: HCT-116 colon
SN12C renal = system: SN12C renal
OVCAR-3 ovarian = system: OVCAR-3 ovarian
SK-MEL-2 melanoma = system: SK-MEL-2 melanoma
T-47D breast = system: T-47D breast
SW-620 colon = system: SW-620 colon
NCI-H226 lung = system: NCI-H226 lung
HCC-2998 colon = system: HCC-2998 colon
SF-268 CNS = system: SF-268 CNS
COLO 205 colon = system: COLO 205 colon
TK-10 renal = system: TK-10 renal
786-0 renal = system: 786-0 renal
OVCAR-8 ovarian = system: OVCAR-8 ovarian
NCI/ADR-RES ovarian = system: NCI/ADR-RES ovarian
SF-539 CNS = system: SF-539 CNS
HL-60(TB) leukemia = system: HL-60(TB) leukemia
RXF 393 renal = system: RXF 393 renal
CCRF-CEM leukemia = system: CCRF-CEM leukemia
MCF7 breast = system: MCF7 breast

## COc1cccc(/C=C2\CCCCCC2=O)c1
EKVX NSCLC
  TGI: > 100 µM
NCI-H460 lung
  TGI: > 100 µM
U251 CNS
  TGI: > 100 µM
MDA-N
  TGI: > 100 µM
PC-3 prostate
  TGI: > 100 µM
HOP-62 NSCLC
  TGI: > 100 µM
UACC-62 melanoma
  TGI: > 100 µM
SNB-75 CNS
  TGI: > 100 µM
LOX IMVI melanoma
  TGI: > 100 µM
SK-MEL-28 melanoma
  TGI: > 100 µM
SNB-19 CNS
  TGI: > 100 µM
OVCAR-4 ovarian
  TGI: > 100 µM
DU-145 prostate
  TGI: > 100 µM
SR leukemia
  TGI: > 100 µM
M14 melanoma
  TGI: > 100 µM
SF-295 CNS
  TGI: > 100 µM
RPMI-8226 leukemia
  TGI: > 100 µM
A549 NSCLC
  TGI: > 100 µM
A498 renal
  TGI: > 100 µM
MALME-3M melanoma
  TGI: > 100 µM
K-562 leukemia
  TGI: > 100 µM
SK-MEL-5 melanoma
  TGI: > 100 µM
UO-31 renal
  TGI: > 100 µM
NCI-H23 lung
  TGI: > 100 µM
SK-OV-3 ovarian
  TGI: > 100 µM
NCI-H522 lung
  TGI: > 100 µM
CAKI-1 renal
  TGI: > 100 µM
HT29 colon
  TGI: > 100 µM
UACC-257 melanoma
  TGI: > 100 µM
HCT-15 colon
  TGI: > 100 µM
BT-549 breast
  TGI: > 100 µM
ACHN renal
  TGI: > 100 µM
KM12 colon
  TGI: > 100 µM
MDA-MB-435
  TGI: > 100 µM
HS 578T breast
  TGI: > 100 µM
MOLT-4 leukemia
  TGI: > 100 µM
MDA-MB-231 breast
  TGI: > 100 µM
HOP-92 NSCLC
  TGI: > 100 µM
IGROV1 ovarian
  TGI: > 100 µM
OVCAR-5 ovarian
  TGI: > 100 µM
HCT-116 colon
  TGI: > 100 µM
SN12C renal
  TGI: > 100 µM
OVCAR-3 ovarian
  TGI: > 100 µM
SK-MEL-2 melanoma
  TGI: > 100 µM
T-47D breast
  TGI: > 100 µM
SW-620 colon
  TGI: > 100 µM
NCI-H226 lung
  TGI: > 100 µM
HCC-2998 colon
  TGI: > 100 µM
SF-268 CNS
  TGI: > 100 µM
COLO 205 colon
  TGI: > 100 µM
TK-10 renal
  TGI: > 100 µM
786-0 renal
  TGI: > 100 µM

## O=C(NC1=NC2C=CC([N+](=O)[O-])=CC2S1)C(=O)Nn1c(=S)[nH]c2ccccc2c1=O (stereo not drawn)
EKVX NSCLC
  TGI: > 100 µM
NCI-H460 lung
  TGI: > 100 µM
OVCAR-8 ovarian
  TGI: > 100 µM
NCI/ADR-RES ovarian
  TGI: > 100 µM
U251 CNS
  TGI: > 100 µM
MDA-N
  TGI: > 100 µM
PC-3 prostate
  TGI: > 100 µM
HOP-62 NSCLC
  TGI: > 100 µM
UACC-62 melanoma
  TGI: > 100 µM
SNB-75 CNS
  TGI: > 100 µM
LOX IMVI melanoma
  TGI: > 100 µM
SK-MEL-28 melanoma
  TGI: > 100 µM
SNB-19 CNS
  TGI: 72.7 µM
OVCAR-4 ovarian
  TGI: > 100 µM
SF-539 CNS
  TGI: > 100 µM
HL-60(TB) leukemia
  TGI: > 100 µM
M14 melanoma
  TGI: > 100 µM
SF-295 CNS
  TGI: > 100 µM
RPMI-8226 leukemia
  TGI: > 100 µM
A549 NSCLC
  TGI: > 100 µM
A498 renal
  TGI: > 100 µM
MALME-3M melanoma
  TGI: > 100 µM
K-562 leukemia
  TGI: > 100 µM
SK-MEL-5 melanoma
  TGI: > 100 µM
RXF 393 renal
  TGI: > 100 µM
UO-31 renal
  TGI: > 100 µM
NCI-H23 lung
  TGI: > 100 µM
SK-OV-3 ovarian
  TGI: > 100 µM
NCI-H522 lung
  TGI: > 100 µM
CAKI-1 renal
  TGI: > 100 µM
HT29 colon
  TGI: > 100 µM
UACC-257 melanoma
  TGI: > 100 µM
HCT-15 colon
  TGI: > 100 µM
BT-549 breast
  TGI: > 100 µM
CCRF-CEM leukemia
  TGI: > 100 µM
ACHN renal
  TGI: 85.3 µM
KM12 colon
  TGI: > 100 µM
MDA-MB-435
  TGI: > 100 µM
HS 578T breast
  TGI: > 100 µM
MOLT-4 leukemia
  TGI: > 100 µM
MDA-MB-231 breast
  TGI: > 100 µM
HOP-92 NSCLC
  TGI: > 100 µM
IGROV1 ovarian
  TGI: > 100 µM
OVCAR-5 ovarian
  TGI: > 100 µM
HCT-116 colon
  TGI: > 100 µM
MCF7 breast
  TGI: > 100 µM
SN12C renal
  TGI: > 100 µM
OVCAR-3 ovarian
  TGI: > 100 µM
SK-MEL-2 melanoma
  TGI: > 100 µM
T-47D breast
  TGI: > 100 µM
SW-620 colon
  TGI: > 100 µM
NCI-H226 lung
  TGI: > 100 µM
HCC-2998 colon
  TGI: > 100 µM
SF-268 CNS
  TGI: > 100 µM
TK-10 renal
  TGI: > 100 µM
786-0 renal
  TGI: > 100 µM
